Experimental data: ChEMBL document CHEMBL1133022, “Predicting blood-brain barrier permeation from three-dimensional molecular structure” (J Med Chem, 2000)

species on record: Mus musculus; assay: BBB penetration classification; conditions: not given

`CC(C)(C)c1ccc(C(=O)CCCN2CCC(OC(c3ccccc3)c3ccccc3)CC2)cc1` [EBASTINE] was tested. Which Permeability did it give?
Its Permeability is “Impermeable”.

With `COc1ccc(CCN2CCC(Nc3nc4ccccc4n3Cc3ccc(F)cc3)CC2)cc1` [ASTEMIZOLE] as the molecule, how does the Permeability read?
The Permeability was “Impermeable”.

For `C[C@H](CN1c2ccccc2Sc2ccccc21)N(C)C`, which Permeability is on record?
Its Permeability is “Permeable”.

Which Permeability does the source give for `O=C(Cc1ccc(Cl)c(Cl)c1)N1CCCC[C@H]1CN1CCCC1` here?
The Permeability was “Permeable”.

With `Clc1cccc(Cl)c1N=C1NCCN1` [CLONIDINE] as the molecule, how does the Permeability read?
Its Permeability is “Permeable”.

With `OCCN1CCN(CCCN2c3ccccc3Sc3ccc(Cl)cc32)CC1` [PERPHENAZINE] as the molecule, how does the Permeability read?
The Permeability was “Permeable”.

How did the Permeability turn out when `NCCc1ccc(O)c(O)c1` [DOPAMINE] was run?
Its Permeability is “Impermeable”.

Which Permeability does the source give for `CCn1cc(C(=O)O)c(=O)c2cc(F)c(N3CCNCC3)cc21` [NORFLOXACIN] here?
Its Permeability is “Impermeable”.

Which Permeability does the source give for `CNC(=C[N+](=O)[O-])NCCSCc1ccc(CN(C)C)o1` [RANITIDINE] here?
The Permeability was “Impermeable”.

For `CNCCCN1c2ccccc2CCc2ccccc21` [DESIPRAMINE], which Permeability is on record?
Its Permeability is “Permeable”.

For `O=C(Cc1ccc(Cl)c(Cl)c1)N1CCc2occc2[C@H]1CN1CC[C@@H](O)C1` (mixture of isomers), which Permeability is on record?
Its Permeability is “Permeable”.

With `O=C(Cc1ccc(Cl)c(Cl)c1)N1CCc2occc2[C@H]1CN1CC[C@H](O)C1` as the molecule, how does the Permeability read?
Its Permeability is “Permeable”.

`CC(C)(C)c1ccc([C@H](O)CCCN2CCC(C(O)(c3ccccc3)c3ccccc3)CC2)cc1` [R-TERFENADINE] was tested. Which Permeability did it give?
The Permeability was “Impermeable”.

How did the Permeability turn out when `CSc1ccc2c(c1)N(CCC1CCCCN1C)c1ccccc1S2` (stereo unspecified) [THIORIDAZINE] was run?
The Permeability was “Permeable”.

How did the Permeability turn out when `O=C1CC[C@@]2(O)[C@H]3Cc4ccc(O)c5c4[C@@]2(CCN3CC2CC2)[C@H]1O5` [NALTREXONE] was run?
Its Permeability is “Permeable”.

`CCCC(C)C1(CC)C(=O)NC(=S)NC1=O` (stereo unspecified) [THIOPENTAL] was tested. Which Permeability did it give?
The Permeability was “Permeable”.

`CN/C(=N/CCSCc1nc[nH]c1C)NC#N` [CIMETIDINE] was tested. Which Permeability did it give?
Its Permeability is “Impermeable”.

For `O=C(Cc1ccc(Cl)c(Cl)c1)N1CCc2occc2[C@@H]1CN1CC[C@H](O)C1` (racemic), which Permeability is on record?
Its Permeability is “Permeable”.

With `C[C@]12CC[C@@H]3c4ccc(O)cc4CC[C@H]3[C@@H]1CC[C@@H]2O` [ESTRADIOL] as the molecule, how does the Permeability read?
Its Permeability is “Permeable”.

For `Cn1c(=O)c2c(ncn2C)n(C)c1=O` [CAFFEINE], which Permeability is on record?
The Permeability was “Permeable”.

How did the Permeability turn out when `CCC(NC(=O)c1c(C)c(-c2ccccc2)nc2ccccc12)c1ccccc1` (stereo unspecified) was run?
Its Permeability is “Permeable”.

For `O=c1[nH]c2ccccc2n1CCCN1CCC(n2c(=O)[nH]c3cc(Cl)ccc32)CC1` [DOMPERIDONE], which Permeability is on record?
The Permeability was “Impermeable”.

How did the Permeability turn out when `C[C@@H](CN1c2ccccc2Sc2ccccc21)N(C)C` [(S)-PROMETHAZINE] was run?
The Permeability was “Permeable”.

How did the Permeability turn out when `CN(C)CCCN1c2ccccc2Sc2ccc(Cl)cc21` [CHLORPROMAZINE] was run?
The Permeability was “Permeable”.

`CC(C)(C)c1ccc([C@@H](O)CCCN2CCC(C(O)(c3ccccc3)c3ccccc3)CC2)cc1` was tested. Which Permeability did it give?
The Permeability was “Impermeable”.

same assay, conditions: in vivo

`N[C@@H](Cc1ccc(O)c(O)c1)C(=O)O` [LEVODOPA] was tested. Which “BBB Impermeable” value did it give?
The value was “Impermeable”.
